Patent publication US10053454B2 (Bristol-Myers Squibb Company, priority 2013, dated 2018)

Biological target: BRD4 (Homo sapiens, UniProt O60885)
Assay: Time Resolved Fluorescence Resonance Energy Transfer (TR-FRET) binding assay
Settings: one of the FRET assays described (BRD4 construct not given)

How did the IC50 turn out when Cc1noc(C)c1-c1cc(C(N)=O)c2c(c1)c1cc(S(C)(=O)=O)ccc1n2CC1CC1 [Example 78, 9-(cyclopropylmethyl)-3-(3,5-dimethyl-4-isoxazolyl)-6-(methylsulfonyl)-9H-carbazole-1-carboxamide] was run?
Its IC50 is less than 0.05 µM.

For Cc1noc(C)c1-c1cc(C(N)=O)c2c(c1)c1ccc(S(C)(=O)=O)cc1n2CC1CC1 [Example 80, 9-(cyclopropylmethyl)-3-(3,5-dimethylisoxazol-4-yl)-7-(methylsulfonyl)-9H-carbazole-1-carboxamide], which IC50 is on record?
The IC50 was less than 0.05 µM.

Cc1noc(C)c1-c1cc(C(N)=O)c2c(c1)c1c(S(C)(=O)=O)cccc1n2CC1CC1 [Example 81, 9-(cyclopropylmethyl)-3-(3,5-dimethyl-4-isoxazolyl)-5-(methylsulfonyl)-9H-carbazole-1-carboxamide] was tested. Which IC50 did it give?
The IC50 was less than 0.05 µM.

For Cc1n[nH]c(C)c1-c1cc(C(N)=O)c2c(c1)c1ccc(C(=O)N3C[C@@H](C)O[C@@H](C)C3)cc1n2CC1CC1 [Example 83, 9-(cyclopropylmethyl)-7-((cis-2,6-dimethyl-4-morpholinyl)carbonyl)-3-(3,5-dimethyl-1H-pyrazol-4-yl)-9H-carbazole-1-carboxamide], which IC50 is on record?
The IC50 was less than 0.5 µM.

Which IC50 does the source give for Cc1nnn(C)c1-c1cc(C(N)=O)c2c(c1)c1ccc(C(=O)N3C[C@@H](C)O[C@@H](C)C3)cc1n2CC1CC1 [Example 84, 9-(cyclopropylmethyl)-7-((cis-2,6-dimethyl-4-morpholinyl)carbonyl)-3-(1,4-dimethyl-1H-1,2,3-triazol-5-yl)-9H-carbazole-1-carboxamide] here?
The IC50 was less than 0.5 µM.

For Cc1noc(C)c1-c1cc(-c2nnc[nH]2)c2c(c1)c1ccc(C(=O)N3C[C@@H](C)O[C@@H](C)C3)cc1n2CC1CC1 [Example 85, 9-(cyclopropylmethyl)-3-(3,5-dimethyl-4-isoxazolyl)-7-((cis-2,6-dimethyl-4-morpholinyl)carbonyl)-1-(1H-1,2,4-triazol-3-yl)-9H-carbazole], which IC50 is on record?
The IC50 was less than 0.5 µM.

With Cc1noc(C)c1-c1cc(C(N)=O)c2c(c1)c1cc(C(=O)N3CCOCC3)ccc1n2S(=O)(=O)C1CC1 [Example 87, 9-(cyclopropylsulfonyl)-3-(3,5-dimethyl-4-isoxazolyl)-6-(4-morpholinylcarbonyl)-9H-carbazole-1-carboxamide] as the compound, how does the IC50 read?
The IC50 was less than 0.05 µM.

How did the IC50 turn out when Cc1noc(C)c1-c1cc(C(N)=O)c2c(c1)c1ccc(C(=O)N3C[C@@H](C)O[C@@H](C)C3)cc1n2S(=O)(=O)C1CC1 [Example 88, 9-(cyclopropylsulfonyl)-3-(3,5-dimethyl-4-isoxazolyl)-7-((cis-2,6-dimethyl-4-morpholinyl)carbonyl)-9H-carbazole-1-carboxamide] was run?
The IC50 was less than 0.05 µM.
